From publication PMC4858680, “A platinum-based hybrid drug design approach to circumvent acquired resistance to molecular targeted tyrosine kinase inhibitors” (Scientific Reports, 2016) come the findings set out here.

Substitutions are numbered along the chain they refer to. Read-outs that look alike come from different tables or passages of the source.

The target of test [1] is EPHA5 (Homo sapiens, UniProt P54756). The experiment in a line: biochemical. The conditions noted are these: read-out: Percent control.
EPHA5, sequence (P54756 25-1037): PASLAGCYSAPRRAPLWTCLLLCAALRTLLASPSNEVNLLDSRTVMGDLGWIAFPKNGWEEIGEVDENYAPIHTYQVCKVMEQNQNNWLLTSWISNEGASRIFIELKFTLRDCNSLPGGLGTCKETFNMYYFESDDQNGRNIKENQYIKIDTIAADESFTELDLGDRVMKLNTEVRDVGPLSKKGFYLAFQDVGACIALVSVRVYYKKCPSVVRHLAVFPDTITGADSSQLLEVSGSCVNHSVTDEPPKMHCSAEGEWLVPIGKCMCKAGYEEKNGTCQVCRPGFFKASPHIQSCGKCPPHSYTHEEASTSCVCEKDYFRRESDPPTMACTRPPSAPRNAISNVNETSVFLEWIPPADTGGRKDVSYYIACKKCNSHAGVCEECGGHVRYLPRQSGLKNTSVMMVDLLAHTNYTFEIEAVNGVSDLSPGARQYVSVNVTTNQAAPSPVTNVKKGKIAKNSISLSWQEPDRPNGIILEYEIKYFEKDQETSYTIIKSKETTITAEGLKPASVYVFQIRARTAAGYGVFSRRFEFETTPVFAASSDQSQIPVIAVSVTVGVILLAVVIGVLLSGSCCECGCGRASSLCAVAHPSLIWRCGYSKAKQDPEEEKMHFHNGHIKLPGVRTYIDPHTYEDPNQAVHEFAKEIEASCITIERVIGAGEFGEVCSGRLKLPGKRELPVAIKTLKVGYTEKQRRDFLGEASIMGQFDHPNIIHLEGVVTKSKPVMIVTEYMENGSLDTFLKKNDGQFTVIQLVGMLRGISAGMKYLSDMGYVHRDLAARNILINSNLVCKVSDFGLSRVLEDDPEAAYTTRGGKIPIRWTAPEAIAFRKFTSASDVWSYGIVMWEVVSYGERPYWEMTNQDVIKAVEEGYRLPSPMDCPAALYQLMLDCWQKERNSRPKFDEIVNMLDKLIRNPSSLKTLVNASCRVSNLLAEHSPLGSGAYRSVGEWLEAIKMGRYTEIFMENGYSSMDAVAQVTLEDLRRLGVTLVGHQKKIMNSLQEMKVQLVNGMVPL
Test [2] relates to H292. Description: Anticancer activity (cytotoxicity) in NSCLC cell line. The test is classed as cell-based.
The target in test [3] is T1, CSK (Homo sapiens, UniProt P41240). The experiment in a line: biochemical. The conditions noted are these: read-out: Percent control.
T1 sequence (P41240 whole entry): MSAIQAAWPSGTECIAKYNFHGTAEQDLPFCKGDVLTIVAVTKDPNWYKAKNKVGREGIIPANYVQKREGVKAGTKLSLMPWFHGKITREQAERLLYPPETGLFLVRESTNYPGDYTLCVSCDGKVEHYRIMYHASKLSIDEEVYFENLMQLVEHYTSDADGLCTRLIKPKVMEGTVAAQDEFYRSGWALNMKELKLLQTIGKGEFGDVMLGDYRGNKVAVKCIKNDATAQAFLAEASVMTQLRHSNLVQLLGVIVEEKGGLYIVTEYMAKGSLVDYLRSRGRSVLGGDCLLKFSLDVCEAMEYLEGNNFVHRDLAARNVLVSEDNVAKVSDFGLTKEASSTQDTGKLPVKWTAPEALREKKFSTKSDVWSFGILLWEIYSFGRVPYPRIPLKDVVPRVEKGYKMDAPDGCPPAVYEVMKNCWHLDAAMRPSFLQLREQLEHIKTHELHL
Test [4] deals with T2, MST1R (Homo sapiens, UniProt Q04912).
T2 construct: purchased DiscoveRx KINOMEscan
T2 sequence (Q04912 25-1400): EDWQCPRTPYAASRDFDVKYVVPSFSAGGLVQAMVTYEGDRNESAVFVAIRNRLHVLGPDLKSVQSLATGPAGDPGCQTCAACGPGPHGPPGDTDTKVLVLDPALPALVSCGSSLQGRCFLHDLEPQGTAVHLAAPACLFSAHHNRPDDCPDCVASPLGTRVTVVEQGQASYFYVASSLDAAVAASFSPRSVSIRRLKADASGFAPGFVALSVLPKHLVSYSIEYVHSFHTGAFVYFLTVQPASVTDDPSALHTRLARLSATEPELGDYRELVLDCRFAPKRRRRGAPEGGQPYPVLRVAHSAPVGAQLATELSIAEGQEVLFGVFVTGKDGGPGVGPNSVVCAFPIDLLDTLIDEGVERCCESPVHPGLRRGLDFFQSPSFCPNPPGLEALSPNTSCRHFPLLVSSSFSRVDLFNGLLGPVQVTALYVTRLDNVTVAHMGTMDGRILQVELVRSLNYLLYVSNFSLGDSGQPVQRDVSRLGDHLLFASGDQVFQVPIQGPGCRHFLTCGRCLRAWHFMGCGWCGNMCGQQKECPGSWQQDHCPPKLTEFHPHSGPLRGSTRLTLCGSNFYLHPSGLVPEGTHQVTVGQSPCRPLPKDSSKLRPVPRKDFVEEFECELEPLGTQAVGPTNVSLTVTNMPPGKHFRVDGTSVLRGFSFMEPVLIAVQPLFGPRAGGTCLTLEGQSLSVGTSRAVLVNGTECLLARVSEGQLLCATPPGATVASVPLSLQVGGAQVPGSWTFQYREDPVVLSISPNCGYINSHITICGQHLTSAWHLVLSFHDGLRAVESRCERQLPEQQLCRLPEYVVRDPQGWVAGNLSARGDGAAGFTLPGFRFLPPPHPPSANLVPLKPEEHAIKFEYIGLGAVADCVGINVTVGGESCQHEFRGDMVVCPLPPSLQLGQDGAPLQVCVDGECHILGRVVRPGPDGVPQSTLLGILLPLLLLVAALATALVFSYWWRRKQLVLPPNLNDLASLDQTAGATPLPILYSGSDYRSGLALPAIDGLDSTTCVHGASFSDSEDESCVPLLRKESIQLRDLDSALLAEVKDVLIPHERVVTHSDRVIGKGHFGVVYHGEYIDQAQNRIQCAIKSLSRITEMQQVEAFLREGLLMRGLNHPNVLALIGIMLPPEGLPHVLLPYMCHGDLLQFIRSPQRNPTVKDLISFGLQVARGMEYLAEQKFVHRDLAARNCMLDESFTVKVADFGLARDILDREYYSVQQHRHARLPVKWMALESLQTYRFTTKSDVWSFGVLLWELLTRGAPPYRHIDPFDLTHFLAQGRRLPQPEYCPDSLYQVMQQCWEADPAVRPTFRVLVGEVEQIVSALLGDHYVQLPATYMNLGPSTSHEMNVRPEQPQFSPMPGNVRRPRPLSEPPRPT
It counts as binding. The conditions noted are these: 10 μM.

Test [5] has as its target T1, CSK. The conditions noted are these: 10 μM.
Test [6] addresses T3, FLT3(D835Y) (Homo sapiens, UniProt P36888, D835Y).
T3 sequence (P36888 27-993 D835Y): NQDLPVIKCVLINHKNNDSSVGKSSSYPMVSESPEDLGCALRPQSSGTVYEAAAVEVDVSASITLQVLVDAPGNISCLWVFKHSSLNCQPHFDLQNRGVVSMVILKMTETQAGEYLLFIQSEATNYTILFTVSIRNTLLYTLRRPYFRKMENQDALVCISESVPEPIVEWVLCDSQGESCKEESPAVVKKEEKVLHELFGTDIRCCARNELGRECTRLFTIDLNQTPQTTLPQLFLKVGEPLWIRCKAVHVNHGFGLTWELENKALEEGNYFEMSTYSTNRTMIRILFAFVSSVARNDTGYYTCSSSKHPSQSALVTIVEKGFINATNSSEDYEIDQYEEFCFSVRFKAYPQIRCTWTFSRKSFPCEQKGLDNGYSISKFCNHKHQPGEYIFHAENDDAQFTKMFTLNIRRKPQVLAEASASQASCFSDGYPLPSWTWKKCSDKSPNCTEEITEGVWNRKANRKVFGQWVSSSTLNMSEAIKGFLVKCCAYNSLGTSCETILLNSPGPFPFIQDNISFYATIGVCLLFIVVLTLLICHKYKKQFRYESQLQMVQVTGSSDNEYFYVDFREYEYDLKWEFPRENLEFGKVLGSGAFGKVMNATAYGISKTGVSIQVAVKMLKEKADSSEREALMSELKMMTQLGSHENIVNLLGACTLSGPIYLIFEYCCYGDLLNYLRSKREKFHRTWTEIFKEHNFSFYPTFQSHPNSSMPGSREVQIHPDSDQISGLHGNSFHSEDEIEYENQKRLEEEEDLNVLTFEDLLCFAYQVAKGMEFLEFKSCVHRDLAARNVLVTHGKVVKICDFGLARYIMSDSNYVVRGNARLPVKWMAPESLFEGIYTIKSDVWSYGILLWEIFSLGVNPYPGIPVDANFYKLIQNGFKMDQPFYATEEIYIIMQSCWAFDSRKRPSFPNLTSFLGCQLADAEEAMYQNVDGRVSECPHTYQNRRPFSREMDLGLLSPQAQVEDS

For test [7], the target named is T4, FLT3(N841I) (Homo sapiens, UniProt P36888, N841I).
T4 sequence (P36888 27-993 N841I): T3 sequence (P36888 27-993 D835Y) with Y809D, N815I

Setting [8] is: Homo sapiens, NCI-H292, read-out: Anticancer activity (IC50) H292.
Setting [9] is: NSCLC, EGFR wild type, read-out: Anticancer activity (IC50) H292.

As a reminder, the IC50 is the midpoint of a concentration-inhibition curve. Consider `COc1cc2c(Nc3ccc(Br)cc3F)ncnc2cc1OCC1CCN(C)CC1` [Vandetanib, reference compound], for which the remaining activity at 10 µM in test [1] was determined as 2.3%; in test [3], 20%. Besides, in test [2] (setting [8]), the half-inhibitory concentration (IC50) worked out at 6.24 ± 0.94 µM.
For the compound `Cc1ccc(NC(=O)c2ccc(CN3CCN(C)CC3)cc2)cc1Nc1nccc(-c2cccnc2)[n+]1[Pt-2]1([Cl])[NH2+]C2CCCCC2[NH2+]1` (stereo not shown) [1b, oxaliplatin-imatinib], the Percent control in test [4] was 100%; in test [5], 100%; in test [6] (FLT3(D835Y), 10 μM), 81%; in test [7] (FLT3(N841I), 10 μM), 72%.
For `C#Cc1cccc(Nc2ncnc3cc(OCCOC)c(OCCOC)cc23)c1` [Erlotinib], the remaining activity at 10 µM in test [1] turned out to be 6.6%; in test [3], 49%. In addition, the IC50 in test [2] (setting [8]) amounted to 0.22 ± 0.12 µM.
With `COc1cc2c(Nc3ccc(Br)cc3F)[n+]([Pt-2]3([Cl])[NH2+]C4CCCCC4[NH2+]3)cnc2cc1OCC1CCN(C)CC1` (stereo not shown) [3b, oxaliplatin-vandetanib], the Percent control stood at 100% in test [4], 41% in test [5], 46 in test [6] and 18 in test [7]. The 50% inhibitory concentration (IC50) in test [2] (setting [9]) was found to be 9.32 ± 1.01 µM.
The matching figures for `C#Cc1cccc(Nc2c3cc(OCCOC)c(OCCOC)cc3nc[n+]2[Pt@SP2-2]([NH3+])([NH3+])[Cl])c1` [2a, cisplatin-erlotinib]: 100%, 100%, 21, 70 and 3.27 ± 1.75 µM.
Consider `Cc1ccc(NC(=O)c2ccc(CN3CCN(C)CC3)cc2)cc1Nc1nccc(-c2cccnc2)n1` [Imatinib, reference compound], for which the remaining activity at 10 µM in test [1] and in test [3] was 100% each time. The Percent control stood at 100% in test [4]; 100% in test [6] (FLT3(D835Y), 10 μM); 100% in test [7] (FLT3(N841I), 10 μM).
